Here are results for four molecules from patent publication US4020111A, “Propynyloxy alkyl arene insecticides” (priority 1975, dated 1977).

Data set [1] relates to German male cockroaches (Blatella Germanicus). As to the kind of experiment: topical application to thorax, 24 hour mortality of German male cockroaches. Type of data set: in vivo, German cockroach (Blatella Germanicus). The protocol: The synergistic effect with mobam of synergist compounds I-B, II-H, II-K and IV-C is further illustrated by the 24 hour mortality data of German male cockroaches (Blatella Germanicus) shown in Table XXXX. The synergists and insecticide were diluted in acetone and applied in small droplets to the thorax of the insect. These doses of synergist alone gave zero percent insect mortality.
The synergistic effect with GS 13005 of compounds I-B, II-H, II-K, II-P, II-Q, II-R and IV-C is illustrated by the 24 hour mortality of German male cockroaches shown in Table XXXXI. These doses of synergist alone caused zero percent insect mortality.

In data set [2] the test system is polyvalent resistant (CH strain) houseflies. Put plainly: whole plant or invertebrate. Type of data set: in vivo, housefly (CH strain). Conditions: for percent kill after 24 hours: CH strain. How it is done: The effect of O-(2-propynyl) oximes with Dimetilan and with GS 13798 was obtained from tests on polyvalent resistant (CH strain) houseflies that had been chilled and to the dorsal region of which was applied an acetone solution of synergist and insecticide at a ratio of two to one. Duplicate tests were performed using 10 four to five-day old female houseflies per test. After dosage, the flies were put in a plastic petri dish with cotton soaked in a sugar-water solution. These doses of insecticide used without synergist caused 10-40% mortality.
(§1) In Table IX, and in the tables following it, the doses of topically applied insecticides and of synergists unless otherwise noted are expressed as micrograms per fly (μg/fly).
The effect of compounds II-C, II-D and II-E with Dimetilan and GS 13798 was determined, following the procedure of Example 5, from tests on polyvalent resistant (CH strain) houseflies. These doses of insecticide used without synergist caused 10-40% mortality.
(§2) The synergistic effect with GS 13005 of compounds I-A, I-B, I-D, I-E, I-F, I-G and I-I was determined from topical application tests to IN/WHO strain, Rutgers A strain and polyvalent CH strain houseflies using the procedures of Example 5. The percent kills of the IN/WHO strain flies after 24 hours are shown in Table XXVIII; of the Rutgers A strain, in Table XXIX; and of the polyvalent CH strain, in Table XXX. The doses of insecticide alone to the CH strain files caused 10-40% mortality.
(§3) The synergistic effect with Diazinon and GS 13005 of various of the benzyl 2-propynyl ethers identified in Tables II and IIa was determined by topical application tests on IN/WHO strain, and Rutgers A strain and polyvalent, resistant, CH strain houseflies using the procedures of Example 5. The percent kills after 24 hours of IN/WHO strain flies are shown in Table XXXI; of Rutgers A strain flies, in Table XXXII; and of CH strain flies, in Table XXXIII. The doses of insecticide alone to the CH strain flies caused 10-40% mortality.
The synergistic effect with pyrethrum of various synergist compounds was determined by topical application tests on polyvalent, resistant CH strain houseflies following the procedure of Example 5. Application of the insecticide alone caused 10-40% mortality.

In data set [3] the test system is Rutgers A strain house flies. As to the kind of experiment: topical application test, percent kill after 24 hours, Rutgers A strain. Format: in vivo, house fly (resistant Rutgers A strain). How it is done:
as §1
The synergistic effect of O-(2-propynyl) oximes with mobam was determined from topical application tests on susceptible, female, IN/WHO strain house flies and from tests on resistant, female, Rutgers A strain house flies. The synergist and insecticide were dissolved in ACS Grade acetone in such quantities that a 1.0μ liter volume applied to the thorax of 3-to-5 day old CO2 -anesthetized female adult house flies contained the desired dosage. After being treated, the flies were confined, 10 to a plaster petri dish, with 3-5 dishes/treatment, and held for 24-hr. observation of mortality. Reconstituted skim milk on cotton dental wicks was provided during the holding period. The percent kills after 24 hours are shown in Table X for the IN/WHO strain and Table XI for the Rutgers A strain.
The synergistic effect of benzyl 2-propynyl ethers with mobam was determined from topical application tests on IN/WHO and Rutgers A strain houseflies, following the procedure of Example 5. The percent kills after 24 hours are shown in Table XIV for the IN/WHO strain and in Table XV for the Rutgers A strain.
The synergistic effect with Diazinon of compounds I-B, I-D, I-F, I-G, I-H and I-I, identified in Tables I and Ia, was determined from topical application tests on IN/WHO strain houseflies and on Rutgers A strain houseflies by the procedure of Example 5. The percent kills after 24 hours are shown in Table XXV for the IN/WHO strain and Table XXVI for the Rutgers A strain.
as §2, §3
The synergistic effect on IN/WHO strain flies and Rutgers A strain flies of compound IV-C with GS 13005 and with Diazinon was determined by the topical application procedure of Example 5. The percent kills of IN/WHO strain flies after 24 hours are shown in Tables XXXVI and XXXVII; the percent kills of Rutgers A strain flies are shown in Tables XXXVIII and XXXIX.

In data set [4] the test system is mice. Put plainly: synergism of acute toxicity of Dimetilan, GS 13005, Secobarbital and Methadone (intraperitoneal). Format: in vivo, Swiss albino white male mice. Particulars: for number of mice dead: 48 hours, of eight mice. A digest of the protocol: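 Male Swiss albino mice (5–6 weeks, 23–27 g), eight per dose; synergist in corn oil given i.p. 1 h before i.p. insecticide or drug (drugs in distilled water). Lethality recorded over at least 6 h; controls received corn oil plus agent alone.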

The test system of data set [5] is IN/WHO strain house flies. As to the kind of experiment: topical application test, percent kill after 24 hours, IN/WHO strain. Type of data set: in vivo, house fly (susceptible IN/WHO strain). In outline: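 Susceptible female IN/WHO house flies, 3–5 days old, CO2-anesthetized, received synergist plus insecticide in acetone (1.0 μL) on the thorax; doses in μg/fly. Flies held 10 per dish, 3–5 dishes/treatment, with skim milk; mortality (percent kill) read at 24 h.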

For data set [6], the system named is Wilson strain house flies. Format: in vivo, house fly (susceptible Wilson strain). Conditions: for Contact Synergistic Ratio, Carbaryl (LC50 insecticide alone / LC50 with synergist): in vivo; for Contact Synergistic Ratio, Pyrolan (LC50 insecticide alone / LC50 with synergist): synergist to insecticide 5:1 by weight, 24 h. A digest of the protocol: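 Flies held at room temperature in glass jars coated with acetone-deposited insecticide film, alone or with synergist at 5:1 synergist:insecticide by weight; 10% sugar supplied.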

A further data set relates to houseflies. As to the kind of experiment: percent kill with Diazinon, Table XXVII (strain not given). Conditions: Diazinon 5 + synergist 10 μg/fly, 1440 min. Type of data set: in vivo, housefly.
Data set [7] relates to mice. As to the kind of experiment: acute toxicity of Dimetilan alone and of synergist alone (intraperitoneal). Format: in vivo, Swiss albino white male mice. Particulars: synergist alone 1000 mg/kg ip, 72 hours, of eight mice. The protocol:
To determine the acute toxicity of dimetilan alone, eight dosage levels of Dimetilan, ranging from 4 to 32 mg per kg wer applied to eight, Swiss, albino, white, male mice per dosage level. The mice weighed approximately 23 to 27 grams and were five to size weeks old. The Dimetilan was administered intraperitoneally in 0.1 ml of corn oil one hour after the administration of the same dose of corn oil alone.
To determine the acute toxicity of the synergist alone, various synergists were administered intraperitoneally at a dose of 1000 mg/kg to each of a group of eight mice. The number of animals dead at the end of 72 hours is reported in the left hand column of Table XXXXVI.

Data set [8] deals with mice. As to the kind of experiment: extension of Noludar sleeping time by synergists. Format: in vivo, Swiss albino white male mice. Particulars: Noludar 110 mg/K, synergist 110 mg/K. In outline: (§4)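 Swiss albino male mice (~38 days, 25-30 g) given synergist at 74.0 or 110.0 mg/kg in corn oil 1 h before Secobarbital 37.0 mg/kg or Noludar 110.0 mg/kg in water. Sleeping time measured from drug dosing to righting-reflex recovery; relative sleeping time = treated ÷ drug-only control.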

In data set [9] the test system is mice. As to the kind of experiment: extension of Secobarbital sleeping time by synergists. Type of data set: in vivo, Swiss albino white male mice. Particulars: Secobarbital 37 mg/K; for Relative Sleeping Time: treated/control. In outline: as §4

Several values for one entry are separate records, joined by “and”; a condition that tells them apart may be missing. Identical values can stand only once.

Usually mortality stands for the share of the test organisms that died. On to `COc1nn(CSP(=S)(OC)OC)c(=O)s1` [GS 13005, S-((2-methoxy-5-oxo-Δ^2-1,3,4-thiadiazolin-4-yl)methyl) O,O-dimethyl phosphorodithioate, reference compound], for which, in data set [1] (GS 13005 alone, dose 0.08, 1440 min), the 24 hour mortality is 15% and 23% and 10%. The mortality at 1 µg/fly in [2] (Musca domestica, topical, 24 h, read-out: mortality, insecticide alone) lay in the range of 10 to 40%. Besides, the “percent kill after 24 hours” value in data set [3] (GS 13005 alone 1.0 μg/fly, 1440 min) is 2%; in data set [5] (GS 13005 alone 0.05 μg/fly) it was 0%; in [5] (GS 13005 alone 0.10 μg/fly, 1440 min), 19% and 16% and 12%. The “mice lethality (number dead)” value with mice [4] (control: GS 13005 71 mg/kg in 0.1 ml corn oil) stood at 5.
Consider `C#CCON=Cc1ccc(OC)c(OC)c1` [I-A], for which the “Contact Synergistic Ratio, Carbaryl (LC50 insecticide alone / LC50 with synergist)” value in data set [6] was 200. Moreover, the “Contact Synergistic Ratio, Pyrolan (LC50 insecticide alone / LC50 with synergist)” value in data set [6] is given as 30. In addition, the “percent kill after 24 hours” value in [2] (Dimetilan 2 + synergist 4 μg/fly) is on record as 100%; in data set [2] (GS 13005 1 + synergist 2 μg/fly), 45%; in data set [2] (GS 13798 1 + synergist 2 μg/fly), 65%; in data set [2] (Pyrethrum 2 + synergist 4 μg/fly), 15%. For the same molecule, the percent kill with houseflies was found to be 45%.
In the case of `C#CCOCc1c(Cl)cccc1Cl` [II-H], in data set [6], the “Contact Synergistic Ratio, Carbaryl (LC50 insecticide alone / LC50 with synergist)” value turned out to be 300. In addition, in data set [6], the “Contact Synergistic Ratio, Pyrolan (LC50 insecticide alone / LC50 with synergist)” value was found to be 40. Also, the “insect mortality, synergist alone” value in data set [1] (synergist alone at doses of Table XXXX) and in data set [1] (synergist alone at doses of Table XXXXI) was “zero” throughout. Moreover, the figures for the “number of mice dead” value with mice [7], in the data set on mice [4] (Dimetilan 8 mg/kg + synergist 80 mg/kg ip) and in the data set with mice [4] (Dimetilan 8 mg/kg + synergist 240 mg/kg ip) were 0, 0 and 6, respectively. The “Mean Sleeping Time” value in the data set with mice [8] amounted to 68 min; with mice [9] (synergist 74 mg/K) it was 44 min; in the data set on mice [9] (synergist 110 mg/K), 51 min. Further, the “Relative Sleeping Time” value with mice [8] (treated/control) worked out at 2.2; in the data set on mice [9] (synergist 74 mg/K), 1.4; in the data set on mice [9] (synergist 110 mg/K), 2.1. Also, the “mice lethality (number dead)” value was found to be 7 in the data set with mice [4] (GS 13005 71 mg/kg + synergist 213 mg/kg), 4 in the data set on mice [4] (Methadone 32 mg/kg + synergist 215 mg/kg) and 0 in the data set on mice [4] (Secobarbital 90 mg/kg + synergist 215 mg/kg).
As for `CNC(=O)Oc1cccc2sccc12` [Mobam, 4-benzo(b) thienyl-N-methylcarbamate, reference compound], the 24 hour mortality is given as 10% in data set [1] (Mobam alone, dose 0.12) and 30% in data set [1] (Mobam alone, dose 0.16). Also, the “percent kill after 24 hours” value in data set [3] (Mobam alone 0.15 μg/fly) is on record as 0%; in [3] (Mobam alone 0.30 μg/fly) it was 0%; in [3] (Mobam alone 0.40 μg/fly), 7%; in data set [3] (Mobam alone 0.60 μg/fly), 4%; in data set [5] (Mobam alone 0.05 μg/fly), 0%; in [5] (Mobam alone 0.10 μg/fly) it was “zero”. In addition, the “percent kill after 24 hours” value worked out at 0% in [5] (Mobam alone 0.10 μg/fly, 1440 min) and 2% in data set [5] (Mobam alone 0.20 μg/fly, 1440 min). Also, the “percent mortality 24 hours” value is 0% in data set [5] (Mobam alone 0.13 μg/fly); 83% in [5] (Mobam alone 0.50 μg/fly, 1440 min); 73% and 93% in data set [5] (Mobam alone 1.0 μg/fly, 1440 min). Besides, the “change in lethality on doubling dose of mobam alone” value in [5] (mobam alone 0.05 to 0.10 mg/fly (so in the source)) is on record as “no increase in lethality”.
